Data on ten compounds can be found in patent publication EP0519427A2, “N-substituted-3-iodopropiolamide, production and use thereof” (priority 1991, dated 1992).

The test system of one test is wood rot fungi. Kind of test: Preserving activity for wood preservatives, overall statement for both fungi. Conditions: summary of Table 2. Format: cell-based, Tyromyces palustris, Coriolus versicolor. As to the method: This test was conducted according to Specification No.1 of Japan Wood Preserving Association, enacted in 1979, amended in 1989 and titled "Test methods of preserving activity for wood preservatives used in the coating, spraying and dipping treatment".
• ① Tyromyces palustris (Ber. et Curt.) Murr., FFPRI 0507 --"Ouzuratake" • ② Coriolus versicolor(L. ex Fr.) Quélet, FFPRI 1030 --"Kawaratake"
These two fungi are classified as wood rot fungi.
Culture media comprised culture jars (cylindrical jars of bottom diameter 8-9 cm, opening diameter 6-7 cm and height 15-18 cm), in which quartz sand of 250 g (the size of which corresponds to 20-30 mesh) was put first, and then the solution of 70 ml containing 2.0 % malt extracts and 1.0 % peptone was introduced, over which chips of the beech or other broadleaf tree were spread at about 2 mm thickness, and then sterilized at 120 °C for 30 minutes in the wet heated sterilizer.
Fungi were cultured at 26 ± 2 °C with shaking using the culture solution of 2.0 % malt extracts and 1.0 % peptone. After sufficient breeding was obtained, the fungi solution of about 3 ml was spread all over the culture medium, and then the fungi were cultured at 26 ± 2 °C with the relative humidity of over 70 %. After 10-15 days when the fungi layer sufficiently covered the culture medium, the fungi were served for the tests.
Wood specimens were the sapwood of intact cedar and beech, the dimension of which was 5 mm thick, 20 mm wide and 40 mm long. The grain face was of 20 mm width and 40 mm length. The side faces were treated with cold-setting epoxy resin.
The antimicrobial operation was performed with specifying types of fungi for corresponding type of trees. The combinations were as follows: Cedar----Tyromyces palustris ("Ouzuratake") Beech----Coriolus versicolor ("Kawaratake")
The test specimens were of two types, treated and untreated specimens, respectively.
The treated specimens referred to the wood specimens coated by brushing, spraying or dipping with wood preservatives. The amount of applied preservatives was 110 ± 10 g/m².
The amount of applied preservatives for each test specimen was calculated by the following equation:
The amount of applied preservatives (g/m²)=(W₁-W₂)/A wherein W₁ : weight of the test specimen after absorption(g), W₂ : weight of the test specimen before absorption(g) and A: surface area of test specimen except both butt surfaces (m²)
2-7-1 The test specimens prepared in the previous section were dried at 60 ± 2 °C with a recirculating dryer for 48 hours, and were allowed to stand in a desiccator for about 30 minutes, and then the weight (W₃) was measured to an accuracy of 0.01 g.
2-7-2 Three of each treated and untreated specimens were assembled in the Teflon casing. After sterilizing, the two assemblies were put on their 40 × 5 mm face on the fungi layer in the separate jar. They were kept at 26 ± 2 °C under the relative humidity of over 70 % for eight weeks.
2-7-3 After the eight weeks had elapsed, the test specimens were taken out, and mycelia and other attachments of them were removed neatly. After air-drying for 24 hours, the test specimens were dried at 60 ± 2 °C in a recirculating dryer for 48 hours, and were allowed to stand in a desiccator for about 30 minutes, and then the weight (W₄) was measured to an accuracy of 0.01 g.
The test results were presented by the ratio of average weight loss of test specimens due to antimicrobial operation. The standard deviation and coefficient of variation were also determined. The ratio of weight loss for each test specimen was calculated by the following equation, and its average was also determined: The ratio of weight loss(%) = (W₃ - W₄) / W₃ × 100 [formula] . Lower value of the ratio of weight loss corresponds to higher wood preserving activity. […]

Test [1] deals with Bacillus subtilis IFO-13719. Kind of test: Antibacterial and antifungal activity, paper disc method. In kind it is cell-based. Conditions: paper disc d=8 mm dipped in 1,000 µg/ml solution, TSA medium; for zone of inhibition at 1000 µg/mL: Bacillus subtilis, IFO13719, read-out: diameter of the growth inhibition circle, Bac.(IFO-13719). As to the method:
(§1) Antibacterial and antifungal activity tests for various bacteria and fungi were conducted. The tests were carried out by the conventional paper disc method. That is, a paper disc (d=8 mm) was dipped in aqueous or methanol solution of the compound of the present invention (concentration : 1,000 µg/ml), then dried and used.
(§2) As bacteria to be tested, • ① Staphylococcus aureus IFO-12732 [hereinafter abbreviated to Sta.] • ② Bacillus subtilis IFO-13719 [Bac.] • ③ Escherichia coli IFO-3301 [Esc.] were used. As yeast to be tested, • ④ Saccharomyces cerevisiae IFO-0210 [Sac.] • ⑤ Candida albicans IFO-0583 [Can.] were used. As fungi to be tested, • ⑥ Aspergillus niger IFO-4407 [Asp.] • ⑦ Penicillium citrinum IFO-7784 [Pen.] • ⑧ Tyromyces palustris IFO-30339 [Tyr.] • ⑨ Coriolus versicolor IFO-30340 [Cor.] were used. Among the above fungi, Tyr. and Cor. are wood rot fungi.
(§3) As the test media, agar media shown below were used. That is, TSA (Trypticase Soy Agar) medium was used for Sta., Bac. and Esc.; YNB (Yeast Nitrogen Base) agar medium was used for Sac. and Can.; SDA (Sabouraud Dextrose Agar) medium was used for Asp. and Pen.; and PDA (Potato Dextrose Agar) medium was used for Try. and Cor.
(§4) The determination of antibacterial and antifungal effectiveness was carried out by measuring the diameter of the growth inhibition circle generated on the circumference of the paper disc. The indication of effectiveness is given as follows: -: no growth inhibition circle was observed. +: diameter of the growth inhibition circle was 9 - 20 mm ++: diameter of the growth inhibition circle was 21 - 40 mm +++: diameter of the growth inhibition circle was 41 mm or more

Test [2] relates to Saccharomyces cerevisiae IFO-0210. The test is described as above. Format: cell-based. Conditions: IFO0210, paper disc d=8 mm dipped in 1,000 µg/ml solution, YNB agar medium, read-out: diameter of the growth inhibition circle, Sac.(IFO-0210). As for the experimental part:
as §1, §2, §3, §4

The test system of test [3] is Coriolus versicolor IFO-30340. The test is described as above. Format: cell-based. Conditions: Trametes versicolor, IFO30340; paper disc d=8 mm dipped in 1,000 µg/ml solution; PDA medium; read-out: diameter of the growth inhibition circle, Cor.(IFO-30340). As to the method:
as §1, §2, §3, §4

Test [4] relates to Staphylococcus aureus IFO-12732. The description is as above. Format: cell-based. Conditions: IFO12732, paper disc d=8 mm dipped in 1,000 µg/ml solution, TSA medium, read-out: diameter of the growth inhibition circle, Sta.(IFO-12732). As to the method:
as §1, §2, §3, §4

Test [5] deals with Tyromyces palustris IFO-30339. The description is as above. In kind it is cell-based. Conditions: paper disc d=8 mm dipped in 1,000 µg/ml solution; PDA medium; read-out: diameter of the growth inhibition circle, Tyr.(IFO-30339). As to the method: as §1, §2, §3, §4
The test system of test [6] is Aspergillus niger IFO-4407. The description is as above. In kind it is cell-based. Conditions: IFO4407, paper disc d=8 mm dipped in 1,000 µg/ml solution, SDA medium, read-out: diameter of the growth inhibition circle, Asp.(IFO-4407). As for the experimental part:
as §1, §2, §3, §4

Take `CCCCCNC(=O)C#CI` [Example 7, N-(n-Pentyl)-3-iodopropiolamide]: in the test on wood rot fungi, the “wood preserving activity (statement in words)” value (shortened to “wood preserving activity”) is listed as “excellent wood preserving activity”. The zone of inhibition at 1000 µg/mL was 9 to 20 mm in test [1]; 21 to 40 mm in test [2]; more than 41 mm in test [3]; 21 to 40 mm in test [4]; more than 41 mm in test [5]; 21 to 40 mm in test [6].

For the compound `CCCCCCNC(=O)C#CI` [Example 8, N-(n-Hexyl)-3-iodopropiolamide], in the test on wood rot fungi, the “wood preserving activity” value was “excellent wood preserving activity”. The zone of inhibition at 1000 µg/mL was 9 to 20 mm in test [1]; 21 to 40 mm in test [2]; more than 41 mm in test [3]; 21 to 40 mm in test [4]; more than 41 mm in test [5]; 21 to 40 mm in test [6].

For `CCCCCCCCCCNC(=O)C#CI` [Example 2, N-(n-Decyl)-3-iodopropiolamide], the “wood preserving activity” value in the test on wood rot fungi was “excellent wood preserving activity”. Moreover, the zone of inhibition at 1000 µg/mL lay within 9 to 20 mm in test [1]; 9 to 20 mm in test [2]; 21 to 40 mm in test [3]; 9 to 20 mm in test [4]; 9 to 20 mm in test [5]; 9 to 20 mm in test [6].

On to `CC(C)CNC(=O)C#CI` [Example 6, N-Isobutyl-3-iodopropiolamide], for which the “wood preserving activity” value in the test on wood rot fungi was “excellent wood preserving activity”. The zone of inhibition at 1000 µg/mL in test [1] was 21 to 40 mm; in test [2], 21 to 40 mm; in test [3], 21 to 40 mm; in test [4], 21 to 40 mm; in test [5], more than 41 mm; in test [6] it was 21 to 40 mm.

For the compound `CC(C)(C)NC(=O)C#CI` [Example 1, N-(tert-Butyl)-3-iodopropiolamide], in the test on wood rot fungi, the “wood preserving activity” value was “excellent wood preserving activity”. Moreover, the zone of inhibition at 1000 µg/mL was 9 to 20 mm in test [1]; 21 to 40 mm in test [2]; more than 41 mm in test [3]; 9 to 20 mm in test [4]; more than 41 mm in test [5]; 21 to 40 mm in test [6].

As for `CCCCCCCCNC(=O)C#CI` [Example 10, N-(n-Octyl)-3-iodopropiolamide], the “diameter of the growth inhibition circle, Bac.(IFO-13719)” value in test [1] is recorded as “-”. The zone of inhibition at 1000 µg/mL is 21 to 40 mm in test [2]; more than 41 mm in test [3]; 9 to 20 mm in test [4]; 21 to 40 mm in test [5]; 9 to 20 mm in test [6].

For the compound `CCC(C)NC(=O)C#CI` (stereo not shown) [Example 5, N-(sec-Butyl)-3-iodopropiolamide], the “wood preserving activity” value in the test with wood rot fungi was “excellent wood preserving activity”. The zone of inhibition at 1000 µg/mL in test [1] is 9 to 20 mm; in test [2], 21 to 40 mm; in test [3], more than 41 mm; in test [4] it was 21 to 40 mm; in test [5] it was more than 41 mm; in test [6], 21 to 40 mm.

On to `CCCCNC(=O)C#CI` [Example 4, N-(n-Butyl)-3-iodopropiolamide], for which the “wood preserving activity” value in the test with wood rot fungi is recorded as “excellent wood preserving activity”. The zone of inhibition at 1000 µg/mL in test [1] was 9 to 20 mm; in test [2] it was 21 to 40 mm; in test [3], more than 41 mm; in test [4], 21 to 40 mm; in test [5], more than 41 mm; in test [6], 21 to 40 mm.

For the compound `CCCCCCCNC(=O)C#CI` [Example 9, N-(n-Heptyl)-3-iodopropiolamide], the zone of inhibition at 1000 µg/mL in test [1] was 9 to 20 mm; in test [2], 21 to 40 mm; in test [3] it was more than 41 mm; in test [4], 9 to 20 mm; in test [5], more than 41 mm; in test [6], 21 to 40 mm.

Turning to `CCCCCCCCCNC(=O)C#CI` [Example 11, N-(n-Nonyl)-3-iodopropiolamide], in test [1], the “diameter of the growth inhibition circle, Bac.(IFO-13719)” value was “-”. Also, the zone of inhibition at 1000 µg/mL in test [2] was 9 to 20 mm; in test [3] it was more than 41 mm; in test [4], 9 to 20 mm; in test [5], 21 to 40 mm; in test [6] it was 9 to 20 mm.
